Assay results: patent publication US20250241895A1 (GH RESEARCH IRELAND LIMITED, priority 2022, published 2025)

Assay: Pharmacokinetics of 5-MeO-DMT and bufotenine after inhalation
Format: in vivo, human
Procedure: Blood samples were obtained at 1; 2; 4; 7; 10; 15; 20; 30; 45 min and 1; 1.5; 2; 3; 4 hours after administration.
PK parameters were generated by algebraic analysis of the concentration versus time plots for each individual. The analysis was carried out using the software Phoenix WinNonlin 6.3.

With COc1ccc2[nH]cc(CCN(C)C)c2c1 [5-MeO-DMT] the “detectability in the plasma” value (3 hours after inhalation, 6 mg, 12 mg, 18 mg) was “no longer detectable” and the absorption and distribution (inhaled) was “rapid absorption and distribution”.
